# According to patent US20050009840A1 (SUGEN, INC., priority 2003, published 2005):
# Biological target: T1, HGFR (Homo sapiens, UniProt P08581)
# T1 construct: purchased Upstate 14-526
# Assay: HGFR continuous-coupled spectrophotometric assay
# Assay type: biochemical
# Conditions: at 1 pM; Table 7, library procedure 42; read-out: % Inhibition (percent c-MET inhibition)
# T1 sequence (P08581 974-1390 limits assumed): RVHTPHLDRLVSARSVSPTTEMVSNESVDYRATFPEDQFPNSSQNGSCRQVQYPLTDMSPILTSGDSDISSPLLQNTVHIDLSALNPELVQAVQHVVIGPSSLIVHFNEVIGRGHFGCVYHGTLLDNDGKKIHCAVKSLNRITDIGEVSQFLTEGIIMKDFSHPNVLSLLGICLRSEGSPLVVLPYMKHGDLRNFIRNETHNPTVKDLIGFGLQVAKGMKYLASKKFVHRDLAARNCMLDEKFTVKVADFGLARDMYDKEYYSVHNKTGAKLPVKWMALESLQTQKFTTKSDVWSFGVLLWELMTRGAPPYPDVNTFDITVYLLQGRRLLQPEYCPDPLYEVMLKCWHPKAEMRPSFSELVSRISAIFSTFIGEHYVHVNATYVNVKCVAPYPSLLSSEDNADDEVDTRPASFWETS
row,Structure (SMILES),inhibition at 1 pM
1,Nc1ncc(-c2ccc(C(=O)N3CCC(N4CCCC4)CC3)cc2)cc1OCc1cc(F)ccc1F,24%
2,Nc1ncc(-c2ccc(C(=O)N3CCC(N4CCCC4)CC3)cc2)cc1OCc1ncc(C(F)(F)F)cc1Cl,8%
3,Nc1ncc(-c2ccc(C(=O)N3CCC(N4CCCC4)CC3)cc2)cc1OCc1csc2ccc(Cl)cc12,37%
4,CC(C)(C)c1ccc(-c2noc(COc3cc(-c4ccc(C(=O)N5CCC(N6CCCC6)CC5)cc4)cnc3N)n2)cc1,36%
5,Cc1noc(C)c1-c1nc(COc2cc(-c3ccc(C(=O)N4CCC(N5CCCC5)CC4)cc3)cnc2N)no1,6%
6,COc1ccccc1-c1nc(COc2cc(-c3ccc(C(=O)N4CCC(N5CCCC5)CC4)cc3)cnc2N)no1,8%
7,Nc1ncc(-c2ccc(C(=O)N3CCC(N4CCCC4)CC3)cc2)cc1OCc1csc(-c2ccc(Cl)cc2)n1,9%
8,Cc1nc(COc2cc(-c3ccc(C(=O)N4CCC(N5CCCC5)CC4)cc3)cnc2N)cs1,6%
9,Nc1ncc(-c2ccc(C(=O)N3CCC(N4CCCC4)CC3)cc2)cc1OCc1noc(-c2cccc(C(F)(F)F)c2)n1,27%
10,CCOC(=O)CCNC(=O)c1cccc(COc2cc(-c3ccc(C(=O)N4CCC(N5CCCC5)CC4)cc3)cnc2N)c1,14%
11,COC(=O)c1ccc(COc2cc(-c3ccc(C(=O)N4CCC(N5CCCC5)CC4)cc3)cnc2N)c(OC)c1,15%
12,Nc1ncc(-c2ccc(C(=O)N3CCC(N4CCCC4)CC3)cc2)cc1OCc1ccc(S(=O)(=O)Nc2ccc(F)cc2)cc1,15%
13,Nc1ncc(-c2ccc(C(=O)N3CCC(N4CCCC4)CC3)cc2)cc1OCc1ccc(-c2ccnc(Br)n2)cc1,17%
14,Nc1ncc(-c2ccc(C(=O)N3CCC(N4CCCC4)CC3)cc2)cc1OCc1cscn1,12%
15,Nc1ncc(-c2ccc(C(=O)N3CCC(N4CCCC4)CC3)cc2)cc1OCc1cccc(CO)n1,15%
16,Nc1ncc(-c2ccc(C(=O)N3CCC(N4CCCC4)CC3)cc2)cc1OCc1cccc(-c2ccnc(Br)n2)c1,13%
17,Nc1ncc(-c2ccc(C(=O)N3CCC(N4CCCC4)CC3)cc2)cc1OCc1ccc(C(F)(F)F)nc1,13%
18,Nc1ncc(-c2ccc(C(=O)N3CCC(N4CCCC4)CC3)cc2)cc1OCc1ccc(-c2cnc(Br)nc2)cc1,33%
19,Nc1ncc(-c2ccc(C(=O)N3CCC(N4CCCC4)CC3)cc2)cc1OCc1cn2ccccc2n1,11%
20,COc1cc(COc2cc(-c3ccc(C(=O)N4CCC(N5CCCC5)CC4)cc3)cnc2N)cc(OC)c1,17%
21,CCOC(=O)CCNS(=O)(=O)c1ccc(COc2cc(-c3ccc(C(=O)N4CCC(N5CCCC5)CC4)cc3)cnc2N)cc1,15%
22,Nc1ncc(-c2ccc(C(=O)N3CCC(N4CCCC4)CC3)cc2)cc1OCc1ccc(C(=O)c2ccccc2)cc1,31%
23,COc1cccc(COc2cc(-c3ccc(C(=O)N4CCC(N5CCCC5)CC4)cc3)cnc2N)c1OC,23%
24,Cc1cc(-c2onc(C)c2COc2cc(-c3ccc(C(=O)N4CCC(N5CCCC5)CC4)cc3)cnc2N)no1,22%
25,Cc1nc2ccc(COc3cc(-c4ccc(C(=O)N5CCC(N6CCCC6)CC5)cc4)cnc3N)cc2c(=O)[nH]1,12%
26,Nc1ncc(-c2ccc(C(=O)N3CCC(N4CCCC4)CC3)cc2)cc1OCc1ccc(S(=O)(=O)N2CCOCC2)cc1,14%
27,COCOc1ccc(S(=O)(=O)c2ccc(COc3cc(-c4ccc(C(=O)N5CCC(N6CCCC6)CC5)cc4)cnc3N)cc2)cc1,18%

row,Structure (SMILES),inhibition at 1 pM
1,COc1ccc2sc(COc3cc(-c4ccc(C(=O)N5CCC(N6CCCC6)CC5)cc4)cnc3N)cc2c1,13%
2,Nc1ncc(-c2ccc(C(=O)N3CCC(N4CCCC4)CC3)cc2)cc1OCc1ccc(S(=O)(=O)c2ccc(F)cc2)cc1,13%
3,Cc1nc2scc(COc3cc(-c4ccc(C(=O)N5CCC(N6CCCC6)CC5)cc4)cnc3N)c2c(=O)[nH]1,10%
4,Nc1ncc(-c2ccc(C(=O)N3CCC(N4CCCC4)CC3)cc2)cc1OCc1cncc2ccccc12,9%
5,Cn1c(COc2cc(-c3ccc(C(=O)N4CCC(N5CCCC5)CC4)cc3)cnc2N)nc2ccccc21,10%
6,Nc1ncc(-c2ccc(C(=O)N3CCC(N4CCCC4)CC3)cc2)cc1OCc1nc(-c2ccccn2)no1,9%
7,Nc1ncc(-c2ccc(C(=O)N3CCC(N4CCCC4)CC3)cc2)cc1OCc1c(F)ccc(F)c1Cl,50%
8,Cc1ccc(COc2cc(-c3ccc(C(=O)N4CCC(N5CCCC5)CC4)cc3)cnc2N)c(F)c1F,39%
9,Cc1ccc(F)c(COc2cc(-c3ccc(C(=O)N4CCC(N5CCCC5)CC4)cc3)cnc2N)c1F,51%
10,Cc1cc(COc2cc(-c3ccc(C(=O)N4CCC(N5CCCC5)CC4)cc3)cnc2N)ccc1F,27%
11,Cc1ccc(F)cc1COc1cc(-c2ccc(C(=O)N3CCC(N4CCCC4)CC3)cc2)cnc1N,29%
12,Nc1ncc(-c2ccc(C(=O)N3CCC(N4CCCC4)CC3)cc2)cc1OCc1cccc(Br)c1,24%
13,Nc1ncc(-c2ccc(C(=O)N3CCC(N4CCCC4)CC3)cc2)cc1OCc1nc(N)c2ccccc2n1,15%
14,Nc1ncc(-c2ccc(C(=O)N3CCC(N4CCCC4)CC3)cc2)cc1OCc1cccnc1,17%
15,Nc1ncc(-c2ccc(C(=O)N3CCC(N4CCCC4)CC3)cc2)cc1OCc1ccccn1,16%
16,COc1c(C)cnc(COc2cc(-c3ccc(C(=O)N4CCC(N5CCCC5)CC4)cc3)cnc2N)c1C,20%
17,Cc1onc(-c2ccccc2)c1COc1cc(-c2ccc(C(=O)N3CCC(N4CCCC4)CC3)cc2)cnc1N,19%
18,Nc1ncc(-c2ccc(C(=O)N3CCC(N4CCCC4)CC3)cc2)cc1OCc1cn2cccnc2n1,16%
19,Cc1cc(C)n2nc(COc3cc(-c4ccc(C(=O)N5CCC(N6CCCC6)CC5)cc4)cnc3N)nc2n1,18%
20,Nc1ncc(-c2ccc(C(=O)N3CCC(N4CCCC4)CC3)cc2)cc1OCc1cccc2cccnc12,22%
21,Cn1nc(-c2ccccc2)c(COc2cc(-c3ccc(C(=O)N4CCC(N5CCCC5)CC4)cc3)cnc2N)c1Cl,63%
22,Nc1ncc(-c2ccc(C(=O)N3CCC(N4CCCC4)CC3)cc2)cc1OCc1nc2ccccc2s1,17%
23,Cc1ccc(-c2nnc(COc3cc(-c4ccc(C(=O)N5CCC(N6CCCC6)CC5)cc4)cnc3N)o2)cc1,18%
24,Nc1ncc(-c2ccc(C(=O)N3CCC(N4CCCC4)CC3)cc2)cc1OCc1cc(-c2ccccc2)no1,23%
25,Cc1cc(COc2cc(-c3ccc(C(=O)N4CCC(N5CCCC5)CC4)cc3)cnc2N)no1,16%
26,COC(=O)Nc1cc(COc2cc(-c3ccc(C(=O)N4CCC(N5CCCC5)CC4)cc3)cnc2N)on1,18%
27,Cn1ccnc1COc1cc(-c2ccc(C(=O)N3CCC(N4CCCC4)CC3)cc2)cnc1N,14%

row,Structure (SMILES),inhibition at 1 pM
1,Cc1nc(COc2cc(-c3ccc(C(=O)N4CCC(N5CCCC5)CC4)cc3)cnc2N)n(C)n1,14%
2,Nc1ncc(-c2ccc(C(=O)N3CCC(N4CCCC4)CC3)cc2)cc1OCc1nc2cc(C(F)(F)F)ccc2s1,34%
3,Nc1ncc(-c2ccc(C(=O)N3CCC(N4CCCC4)CC3)cc2)cc1OCc1ccc2ccc(Cl)cc2n1,24%
4,Cc1oc(-c2ccccc2)nc1COc1cc(-c2ccc(C(=O)N3CCC(N4CCCC4)CC3)cc2)cnc1N,19%
5,Cc1cc(=O)n2nc(COc3cc(-c4ccc(C(=O)N5CCC(N6CCCC6)CC5)cc4)cnc3N)nc2[nH]1,18%
6,Nc1ncc(-c2ccc(C(=O)N3CCC(N4CCCC4)CC3)cc2)cc1OCc1nnnn1Cc1ccccc1,19%
7,Nc1ncc(-c2ccc(C(=O)N3CCC(N4CCCC4)CC3)cc2)cc1OCc1nc2ncc(Cl)cc2[nH]1,16%
8,Nc1ncc(-c2ccc(C(=O)N3CCC(N4CCCC4)CC3)cc2)cc1OCc1nc2cccnc2[nH]1,17%
9,Nc1ncc(-c2ccc(C(=O)N3CCC(N4CCCC4)CC3)cc2)cc1OCc1nc2ncccc2o1,17%
10,COc1cc(OC)nc(COc2cc(-c3ccc(C(=O)N4CCC(N5CCCC5)CC4)cc3)cnc2N)n1,20%
11,Cc1[nH]cnc1COc1cc(-c2ccc(C(=O)N3CCC(N4CCCC4)CC3)cc2)cnc1N,12%
12,CCCCc1nc(COc2cc(-c3ccc(C(=O)N4CCC(N5CCCC5)CC4)cc3)cnc2N)c[nH]1,16%
13,COc1ccnc(COc2cc(-c3ccc(C(=O)N4CCC(N5CCCC5)CC4)cc3)cnc2N)c1OC,23%
14,Nc1ncc(-c2ccc(C(=O)N3CCC(N4CCCC4)CC3)cc2)cc1OCc1cn2cc(Cl)ccc2n1,16%
15,Cc1cccnc1COc1cc(-c2ccc(C(=O)N3CCC(N4CCCC4)CC3)cc2)cnc1N,16%
16,Cc1ccn2cc(COc3cc(-c4ccc(C(=O)N5CCC(N6CCCC6)CC5)cc4)cnc3N)nc2c1,16%
17,Cc1oc(-c2ccc(F)cc2)nc1COc1cc(-c2ccc(C(=O)N3CCC(N4CCCC4)CC3)cc2)cnc1N,17%
18,Cc1cccc(COc2cc(-c3ccc(C(=O)N4CCC(N5CCCC5)CC4)cc3)cnc2N)n1,17%
19,Cc1cc(C)nc(COc2cc(-c3ccc(C(=O)N4CCC(N5CCCC5)CC4)cc3)cnc2N)n1,16%
20,COc1ccccc1-c1nc(COc2cc(-c3ccc(C(=O)N4CCC(N5CCCC5)CC4)cc3)cnc2N)c(C)o1,19%
21,CCc1ccc(COc2cc(-c3ccc(C(=O)N4CCC(N5CCCC5)CC4)cc3)cnc2N)nc1,15%
22,Cc1oc(-c2cccc(F)c2)nc1COc1cc(-c2ccc(C(=O)N3CCC(N4CCCC4)CC3)cc2)cnc1N,8%
23,Cn1nc(C(F)(F)F)c2cc(COc3cc(-c4ccc(C(=O)N5CCC(N6CCCC6)CC5)cc4)cnc3N)sc21,14%
24,Nc1ncc(-c2ccc(C(=O)N3CCC(N4CCCC4)CC3)cc2)cc1OCc1cc(-c2ccc(Cl)cc2)no1,23%
25,Cn1nc(CC2CC2)nc1COc1cc(-c2ccc(C(=O)N3CCC(N4CCCC4)CC3)cc2)cnc1N,7%
26,Nc1ncc(-c2ccc(C(=O)N3CCC(N4CCCC4)CC3)cc2)cc1OCc1cnc(N)c(N)n1,9%
